Test results as given in publication PMC8717171 (Saudi Journal of Biological Sciences, 2021).
≈ marks a conversion by molar mass, not a printed value. Where “and” joins values, the source holds several entries; their conditions need not be identical. Identical values can stand only once. Like-named read-outs stand apart in the source and are kept apart here.

Experiments:
[1] = tested on: non-enzymatic lipid peroxidation in rat brain homogenate; assay: In-vitro lipid peroxidation inhibition; settings: Fe2+-ascorbate
[2] = tested on: mice; assay: Peripheral anti-nociception, acetic acid-induced writhing; type: in vivo, Mus musculus; settings: for Number of Writhing (Mean ± SEM): counted for 15 min, n = 5
[3] = tested on: rat hind paw oedema; assay: Anti-inflammatory activity, carrageenan-induced rat hind paw oedema; type: in vivo, Sprague Dawley rat; settings: test compounds 100 mg/kg; for Mean paw edema (volume in ml) ± SEM: n = 5
[4] = tested on: Swiss-albino mice; settings: mouse, in vivo, po; for Reaction time: 25 mg/kg
[5] = Antioxidant activity, DPPH free radical scavenging; type: biochemical; settings: absorbance at 517 nm
[6] = tested on: microbial strains; assay: Antimicrobial disc diffusion, all test strains together; type: cell-based
[7] = biological target: butyrylcholinesterase (Rattus norvegicus, UniProt Q9JKC1); assay: In-vitro anti-butyrylcholinesterase activity; type: biochemical
[8] = biological target: T1, acetylcholinesterase (Rattus norvegicus, UniProt P37136); assay: In-vitro anti-acetylcholinesterase activity; type: biochemical
T1 sequence (P37136 32-614): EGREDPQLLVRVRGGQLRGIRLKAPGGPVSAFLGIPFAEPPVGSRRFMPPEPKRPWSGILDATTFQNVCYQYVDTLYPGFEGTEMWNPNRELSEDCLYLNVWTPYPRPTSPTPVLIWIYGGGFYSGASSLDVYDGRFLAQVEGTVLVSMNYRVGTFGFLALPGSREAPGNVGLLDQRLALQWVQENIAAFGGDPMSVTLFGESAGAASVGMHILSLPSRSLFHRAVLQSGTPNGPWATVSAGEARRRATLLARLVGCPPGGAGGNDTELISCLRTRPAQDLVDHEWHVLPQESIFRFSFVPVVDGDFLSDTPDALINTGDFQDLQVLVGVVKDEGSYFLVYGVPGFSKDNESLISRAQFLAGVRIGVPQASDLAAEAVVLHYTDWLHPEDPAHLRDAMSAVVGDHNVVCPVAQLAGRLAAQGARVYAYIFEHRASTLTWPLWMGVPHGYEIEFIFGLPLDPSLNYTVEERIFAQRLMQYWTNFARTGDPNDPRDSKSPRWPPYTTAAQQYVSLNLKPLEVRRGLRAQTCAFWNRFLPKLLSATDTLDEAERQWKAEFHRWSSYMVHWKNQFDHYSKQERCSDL

[9] = tested on: Bacillus megaterium; assay: Disc diffusion; type: cell-based; settings: standard Ciprofloxacin 5 µg/disc
[10] = tested on: Shigella dysenteriae; assay: Disc diffusion; type: cell-based; settings: standard Ciprofloxacin 5 µg/disc
[11] = tested on: Shigella boydii; assay: Disc diffusion; type: cell-based; settings: standard Ciprofloxacin 5 µg/disc
[12] = tested on: Saccharomyces cerevisiae; assay: Disc diffusion; type: cell-based; settings: standard Ciprofloxacin 5 µg/disc
[13] = tested on: Vibrio parahaemolyticus; assay: Disc diffusion; type: cell-based; settings: standard Ciprofloxacin 5 µg/disc
[14] = tested on: Salmonella typhi; assay: Disc diffusion; type: cell-based; settings: standard Ciprofloxacin 5 µg/disc
[15] = tested on: Staphylococcus aureus; assay: Disc diffusion; type: cell-based; settings: standard Ciprofloxacin 5 µg/disc
[16] = tested on: Escherichia coli; assay: Disc diffusion; type: cell-based; settings: standard Ciprofloxacin 5 µg/disc
[17] = tested on: Bacillus cereus; assay: Disc diffusion; type: cell-based; settings: standard Ciprofloxacin 5 µg/disc
[18] = tested on: Candida albicans; assay: Disc diffusion; type: cell-based; settings: standard Ciprofloxacin 5 µg/disc
[19] = tested on: Salmonella paratyphi; assay: Disc diffusion; type: cell-based; settings: standard Ciprofloxacin 5 µg/disc
[20] = tested on: Sarcina lutea; assay: Disc diffusion; type: cell-based; settings: standard Ciprofloxacin 5 µg/disc
[21] = tested on: Vibrio mimicus; assay: Disc diffusion; type: cell-based; settings: standard Ciprofloxacin 5 µg/disc
[22] = tested on: Bacillus subtilis; assay: Disc diffusion; type: cell-based; settings: standard Ciprofloxacin 5 µg/disc
[23] = tested on: Pseudomonas aeruginosa; assay: Disc diffusion; type: cell-based; settings: standard Ciprofloxacin 5 µg/disc
[24] = tested on: Aspergillus niger; assay: Disc diffusion; type: cell-based; settings: standard Ciprofloxacin 5 µg/disc

Chain of butyrylcholinesterase (Q9JKC1 24-597): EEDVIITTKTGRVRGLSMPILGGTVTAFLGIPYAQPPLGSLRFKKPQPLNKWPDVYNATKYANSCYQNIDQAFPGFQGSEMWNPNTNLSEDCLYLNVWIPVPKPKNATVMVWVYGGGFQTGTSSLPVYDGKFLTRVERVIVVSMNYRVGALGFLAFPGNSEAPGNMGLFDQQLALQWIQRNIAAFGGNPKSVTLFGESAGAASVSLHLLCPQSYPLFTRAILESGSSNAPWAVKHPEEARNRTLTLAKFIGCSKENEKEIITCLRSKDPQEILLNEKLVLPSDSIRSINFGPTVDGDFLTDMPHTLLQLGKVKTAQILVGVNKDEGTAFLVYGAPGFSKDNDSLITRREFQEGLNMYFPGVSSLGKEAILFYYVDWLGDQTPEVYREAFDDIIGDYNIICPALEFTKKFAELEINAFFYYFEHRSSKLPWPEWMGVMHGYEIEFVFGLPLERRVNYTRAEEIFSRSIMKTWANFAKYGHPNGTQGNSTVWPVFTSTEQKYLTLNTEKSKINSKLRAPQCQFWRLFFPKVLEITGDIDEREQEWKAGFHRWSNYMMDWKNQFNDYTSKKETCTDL

SMILES | IC50 (lipid peroxidation inhibition) [1] [µg/mL] | % Paw edema inhibition ([3]; 1st hour) [%] | % Paw edema inhibition ([3]; 2nd hour) [%] | % Paw edema inhibition ([3]; 3rd hour) [%] | % Paw edema inhibition ([3]; 4th hour) [%] | IC50 (antioxidant activity, DPPH scavenging) [5] [µg/mL] | antimicrobial activity (in words) [6] | % of Inhibition of Writhing ([2]; 25 mg/kg) [%] | Number of Writhing (Mean ± SEM) ([2]; 25 mg/kg) | % of Inhibition of Writhing ([2]; 50 mg/kg) [%] | Number of Writhing (Mean ± SEM) ([2]; 50 mg/kg) | Mean paw edema (volume in ml) ± SEM ([3]; 1st hour) [mL] | Mean paw edema (volume in ml) ± SEM ([3]; 2nd hour) [mL] | Mean paw edema (volume in ml) ± SEM ([3]; 3rd hour) [mL] | Mean paw edema (volume in ml) ± SEM ([3]; 4th hour) [mL] | also measured
O.Oc1cc(O)c2c(c1)O[C@H](c1ccc(O)c(O)c1)[C@@H](O)C2 [Catechin, reference compound] | 59.36 | – | – | – | – | – | – | – | – | – | – | – | – | – | – | –
O=C(O)Cc1ccccc1Nc1c(Cl)cccc1Cl [Diclofenac sodium, diclofenac sodium, reference compound] | – | 23.73 | 31.15 | 38.93 | 45.39 | – | – | – | – | – | – | – | – | – | – | % of Inhibition of Writhing ([2]; standard diclofenac sodium, dose column 0.1 ml/10 g (method: 25 mg/kg)): 91.79%
CN1CC[C@]23c4c5ccc(O)c4O[C@H]2[C@@H](O)C=C[C@H]3[C@H]1C5 [morphine, Morphine, reference compound] | – | – | – | – | – | – | – | – | – | – | – | – | – | – | – | % Elongation value [4]: 48.08% and 82.5%
Cc1cc(C(C)(C)C)c(O)c(C(C)(C)C)c1 [BHT, tert-butyl-1-hydroxytoluene, reference compound] | – | – | – | – | – | 14.44 (≈ 65.5 µM) | – | – | – | – | – | – | – | – | – | –
COc1ccc(Cn2c(-c3ccc(OC)cc3)nc3ccccc32)cc1 [Compound 3c, 1-(4-methoxybenzyl)-2-(4-methoxyphenyl)-1H-benzimidazole] | – | 35.59 | 35.25 | 37.40 | 37.59 | 634.22 (≈ 1840 µM) | did not show any antimicrobial activity | 54.10 | 12.3 ± 0.831 | 42.54 | 15.4 ± 0.697 | 0.758 ± 0.035 | 0.79 ± 0.043 | 0.82 ± 0.022 | 0.88 ± 0.046 | Reaction time [4]: 9.8 ± 0.86 and 10.2 ± 0.86 and 10.6 ± 0.68 and 11.8 ± 0.66; % Elongation value ([4]; 50 mg/kg): 42.86% and 44.19% and 50% and 44.23%
Clc1ccc(Cn2c(-c3ccc(Cl)cc3)nc3ccccc32)cc1 [Compound 3b, 1-(4-chlorobenzyl)-2-(4-chlorophenyl)-1H-benzimidazole] | – | 38.98 | 40.16 | 41.98 | 44.68 | – | did not show any antimicrobial activity | 26.87 | 19.6 ± 0.797 | 13.43 | 23.2 ± 0.464 | 0.724 ± 0.057 | 0.73 ± 0.029 | 0.76 ± 0.048 | 0.78 ± 0.056 | IC50 [7]: 66.3 µM; IC50 [8]: 187 µM
Clc1ccc(-c2nc3ccccc3[nH]2)cc1 [Compound 4, 2-(4-chlorophenyl)-1H-benzimidazole] | 98.55 (≈ 431 µM) | 28.81 | 27.87 | 29.77 | 36.88 | 114.18 (≈ 499 µM) | – | 2.99 | 26.0 ± 1.001 | 13.81 | 23.1 ± 0.843 | 0.838 ± 0.051 | 0.88 ± 0.027 | 0.92 ± 0.017 | 0.89 ± 0.033 | Diameter of zone of inhibition (mm) [9]: 9 mm; Reaction time [4]: 9.4 ± 0.93 and 8.8 ± 1.24 and 10.6 ± 0.68 and 12.6 ± 0.93; Diameter of zone of inhibition (mm) [10]: 8 mm; Diameter of zone of inhibition (mm) [11]: 9 mm; Diameter of zone of inhibition (mm) [12]: 9 mm; Diameter of zone of inhibition (mm) [13]: 7 mm; Diameter of zone of inhibition (mm) [14]: 9 mm; Diameter of zone of inhibition (mm) [15]: 0 mm; peripheral analgesic activity (in words) ([2]; 25 mg/kg and 50 mg/kg): did not show any peripheral analgesic activity; Diameter of zone of inhibition (mm) [16]: 10 mm; Diameter of zone of inhibition (mm) [17]: 7 mm; Diameter of zone of inhibition (mm) [18]: 0 mm; Diameter of zone of inhibition (mm) [19]: 0 mm; Diameter of zone of inhibition (mm) [20]: 7 mm; Diameter of zone of inhibition (mm) [21]: 0 mm; Diameter of zone of inhibition (mm) [22]: 9 mm; Diameter of zone of inhibition (mm) [23]: 8 mm; Diameter of zone of inhibition (mm) [24]: 10 mm
Oc1ccc(Cn2c(-c3ccc(O)cc3)nc3ccccc32)cc1 [Compound 3a, 1-(4-hydroxybenzyl)-2-(4-hydroxyphenyl)-1H-benzimidazole] | 75.53 (≈ 239 µM) | 34.75 | 36.07 | 38.93 | 37.59 | 16.73 (≈ 52.9 µM) | did not show any antimicrobial activity | 49.25 | 13.6 ± 0.430 | 29.10 | 19.0 ± 1.649 | 0.768 ± 0.0575 | 0.78 ± 0.023 | 0.80 ± 0.043 | 0.88 ± 0.034 | IC50 [7]: 49.1 µM; IC50 [8]: 231 µM
